This is an account of results in patent publication US11851459B2, “Methods and uses of modulators of anaphase promoting complex (APC) activity for treating cancer” (University of Saskatchewan, priority 2018, dated 2023).

Entries after “also recorded” stand apart in the source; their conditions may differ.

Test [1] has as its system patient derived xenografted (PDX) tumor. As to the kind of experiment: Patient derived xenograft (4-28 PDX) triple negative breast cancer mouse model. It is filed as in vivo. The text has this:
A. In vivo study of M2I-1 impact on a human patient derived xenografted breast tumor (4-28 PDX). An increased dose of M2I-1 was given to mice harboring implanted 4-28 tumor fragments ([…] i.p. injection (treatment) versus mock (DMSO) day 1, with tumor size measured every other day. B. Western analysis of apoptosis (PARP cleavage—24 kDa band) and APC substrate abundance (Cyclin B) in liver and tumor of treated and control after sacrifice on Day 8.
(§1) A mouse model for growing patient derived breast tumor cells obtained from a patient with triple negative breast cancer was developed. This patient had developed resistance to Doxorubicin. Tumors growing in these mice grow rapidly. Mice growing the patient derived xenografted (PDX) tumor were injected with various amounts of M2I-1. […] Since the APC was activated in the canines tested in this study following treatment with metformin, it was asked if metformin can directly activate the APC. Reduced APC substrate Cyclin B levels following metformin treatment in human MCF7 breast cancer cells was observed, similar to that observed when MDF7 cells express the C43-4 plasmid (see below for more on this plasmid) (FIG. 21).
Background: A xenograft is tissue or cells of one species grown in another, often human tumour cells in immunodeficient mice.

Test [2] concerns MCF7 breast cancer cells selected for resistance to Tamoxifen. As to the kind of experiment: Cell viability by Trypan Blue, Tamoxifen resistant MCF7 cells. It is filed as cell-based, human. As for the experimental part: (§2) Parental MCF7 human breast cancer cells, or cells selected for resistance to Tamoxifen, were treated with 1 or 5 uM M2I-1. Tamoxifen resistant cells were also treated with both DOX and M2I-1. Cell viability was measured using Trypan Blue staining (3 rpts). B. Protein lysates were prepared from the cells used in A. The APC target HURP was measured using antibodies against HURP. C. Trypan Blue was used to measure viability of parental and DOX resistant OSW canine lymphoma cells pretreated with 1 or 5 μM M2I-1 (18 hrs), followed by 1 μM DOX (48 hrs). Parental cells were only treated with monotherapy (3 rpts). ND, no data. D. OSW matched cells treated with the APC activator M2I-1 were prepared for APC substrate westerns E. Quantification of western protein abundance (3 rpts).
(§3) Human MCF7 breast cancer cells selected for resistance to Tamoxifen were treated with the M2I-1 activator in culture.

For test [3], the system named is MDA-MB-231 cells. The test can be described thus: Scratch assay, migration of MDA-MB-231 cells. It is filed as cell-based, human. As for the experimental part: A. An equal number of MDA-MB-231 TNBC cells were grown to confluence in 6 well plates. The cells were then treated with increasing doses of metformin (0, 1, 5 and 10 mM) and a scratch was made in the cell lawn creating a void. At the times shown the number of cell that migrated into the void were counted. The experiment was repeated twice. B. WT MDA-MB-231 cells and cells stably expressing the C43-4 plasmid were grown as in A. Control cells were left untreated, with other cells treated with the DMSO control, 1 uM DOX or 2.5 uM M2I-1. A void was created in the cell lawn and the number of cells that entered the void were scored as above. This experiment was repeated 4 times. This experiment was also repeated 4 times in an independently generated stable C43-4 cell line with similar results. The error of the mean is shown. C. WT and MDA-MB-231 cells stably expressing the C2-4B peptide plasmid were used for the scratch assay as described above. D. WT and MDA-MB-231 cells stably expressing the C13-3 peptide plasmid were used for the scratch assay as described above. The experiments in C and D were only performed once.
Assays using WT and C43-4 expressing cells have been done 4 times. Assays using C13-3 and C2-4B cells have only been conducted once. Metformin treated cells have been used twice. For scratch assays, a scratch is made down a confluent plate of cells, leaving a void. The number of cells that migrate back into the void over time is determined.

The test system of test [4] is APC (substrate HURP). As to the kind of experiment: APC substrate westerns, Tamoxifen resistant MCF7 cells. It is filed as cell-based, human. As for the experimental part:
as §2, §3

The test system of test [5] is OSW dog lymphoma cells selected for chemotherapeutic resistance. The test can be described thus: Cell viability by Trypan Blue, DOX resistant OSW cells. It is filed as cell-based, canine. The settings on record: 1 or 5 μM 18 hrs then 1 μM DOX 48 hrs. The protocol:
as §2, §3

Test [6] deals with drug resistant lymphoma. As to the kind of experiment: Canine model of drug resistant lymphoma, metformin adjunct therapy. It is filed as in vivo. The protocol: Enrolled companion canines that presented to the Western College of Veterinary Medicine in Saskatoon with lymphoma that had failed CHOP therapy were enrolled in the study. Canine lymphoma is very common, almost always results in a drug resistant form, and is treated identically in humans and canines.
Each week tumor tissue was received to use for western determination of MDR markers and RNA microarrays.
One canine (canine 6) entered remission after failing all other treatment options. RNA was sampled from the MDR tumor, during metformin treatment, during tumor shrinkage and remission and during relapse and microarray analysis was performed.

In test [7] the test system is APC (substrate Cyclin B). As to the kind of experiment: Cyclin B protein levels in MCF7 cells. It is filed as cell-based, human. The settings on record: MCF7, 48 hrs; 1 mM metformin or transient transfection of peptide plasmid. The protocol:
MCF7 breast cancer cells were treated with 1 mM metformin or transiently transfected with an APC activating peptide (C43-4) for 48 hrs, then harvested for assessment of Cyclin B protein levels. Cyclin B is an APC target.
as §1

Test [8] relates to multiple drug resistant breast cancer. Particulars: cited from earlier work.
The target in test [9] is T1, Apc10 (Saccharomyces cerevisiae, UniProt P53068).
T1 construct: expressed in transfected cells; host or cells: yeast Y2H cells
T1 sequence (P53068 1-250): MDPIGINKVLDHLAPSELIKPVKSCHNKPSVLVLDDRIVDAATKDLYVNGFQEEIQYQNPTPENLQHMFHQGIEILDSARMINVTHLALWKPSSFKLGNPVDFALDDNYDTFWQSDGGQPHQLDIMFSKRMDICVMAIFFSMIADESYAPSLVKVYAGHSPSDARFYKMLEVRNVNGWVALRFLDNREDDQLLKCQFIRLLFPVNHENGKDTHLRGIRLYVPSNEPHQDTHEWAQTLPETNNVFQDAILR
As to the kind of experiment: Yeast 2-hybrid (Y2H) assay, Apc10 bait. It is filed as binding. As for the experimental part: The reverse genetic screen utilized a yeast 2-hybrid (Y2H) protocol that selected for peptides that bound to the APC subunits Apc5 or Apc10 (see FIG. 8 for APC structure), to assess whether peptide-binding might modify APC function. Peptides that bound APC subunits were then assayed for those that suppressed APC mutant defects.
A library of random small peptides were cloned into a Thioredoxin (Trx) scaffold (see FIG. 9 for Trx-peptide structure) and expressed from a galactose-inducible Y2H prey vector in cells expressing the Apc10 bait vector (the modified Apc10 is still part of the complete APC complex). Six peptides that reproducibly interacted with the Apc10 bait construct in Y2H assays were identified (FIG. 1A) and were examined further. Cells will only grow in this assay if the peptide interacts with Apc5 or Apc10.
To identify peptides that bound to either Apc5 or Apc10 proteins using a yeast 2-hybrid (Y2H) screen, random small peptides were cloned into the TrxA scaffold (library provided by R. Geyer; FIG. 9) and expressed from a galactose-inducible Y2H prey vector in cells harboring either the APC5 or APC10 genes cloned into the Y2H bait vectors (APC5/APC10 bait constructs complement APC mutant defects).
Over 100 peptides that bound either Apc5 or Apc10 were recovered from millions screened. Six peptides that reproducibly interacted with the Apc5 or Apc10 bait construct in Y2H assays were examined further. Vectors expressing these 6 peptides were transformed into WT or APC mutant cells and assessed for ts growth.

Test [10] concerns apc10Δ cells. The test can be described thus: C43-4 mutant peptides, spot dilution under temperature and UV stress, apc10Δ cells. The settings on record: glucose or galactose. It is filed as cell-based, yeast. As for the experimental part: The cells were exposed to 5 sec of UV from a UV box prior to incubation.
Expression of the WT and mutant peptides have reduced activity in apc10Δ cells (FIG. 12).
(§4) • 1. Cells were cultured overnight in Trp^− 2% glucose media • 2. The growth of the cells was determined by measuring the optical density (OD) of the cells at 600 nm (OD600) • 3. Cells were diluted to OD600 of 1 with fresh culture media • 4. 100 ul of each culture was pipetted into a well of a 96 well plate • 5. 10 ul of the each starting culture was pipetted into 90 ul of water in 4 additional wells to make a 10-fold serial spot dilution • 6. 5 ul from each serial dilution was spotted onto plates containing standard growth media with either 2% glucose or 2% galactose using a multi-pipettor • 7. The plates were exposed to UV • 8. The plates were then placed at room temperature, 30, or 37° C. for 3-7 days • 9. The plates were scanned and saved as tiff files

Test [11] deals with wild type (WT) cells. The test can be described thus: C43-4 mutant peptides, spot dilution under temperature and UV stress, WT cells. It is filed as cell-based, yeast. The settings on record: low level expression on glucose. The protocol: The cells were exposed to 5 sec of UV from a UV box prior to incubation. The plus signs define growth compared to the empty vector control.
Residues 2, 7, 8, 10, 12 and 14 of peptide C43-4 are conserved with Htz1. All of these residues were mutated to alanine (FIG. 10). Peptides that contained mutations designed to determine which amino acids were required for function were generated. These mutant peptides were grown in wild type cells and in cells that had APC10 mutated, under temperature and UV stress conditions (FIGS. 10-12).
These cells were spot diluted on Trp^− plates and grown at the temperatures shown and/or exposed to ultraviolet (UV) irradiation (FIGS. 10-12). At low level expression on glucose, some of the mutations caused stress dependent phenotypes.
as §4, with “The plates were then placed at room temperature, 30, or 37° C. for 3-7 days • 9. The plates were scanned and saved as tiff files” left out

For `CC(C)CN(CC(C)C)c1ccc(C=C2C(=O)NC(=S)NC2=O)cc1[N+](=O)[O-]` [M2I-1, Mad2 Inhibitor-1], in test [1] (PDX TNBC in mice, i.p. injection, various amounts), the tumor growth result was “stalled in these cells in a dose-dependent manner”. Further, in test [1] (western, Cyclin B, Day 8), the “markers of APC substrates in the tumor” value is “positive for APC activation”. Moreover, the “cell killing / toxicity in combination with chemotherapy (DOX)” value in [2] (Tamoxifen resistant MCF7) is “only in the presence of M2I-1 were cells killed; also recorded: enhances toxicity”. Also, in test [2] (Tamoxifen resistant MCF7, 1 or 5 uM, 18 hrs), the “growth / toxicity of activator alone” value is “did not impair the growth; also recorded: not toxic”. For the same compound, the “metastatic potential / in vitro migration” value in test [3] is “inhibit the in vitro migration”. For the same compound, the “levels of APC substrates” value in test [4] was “reduced the levels of several APC substrates tested”. In addition, the “cell killing by chemotherapy only in presence of activator” value in test [5] is reported as “observed”.
Take `CN(C)C(=N)N=C(N)N` [metformin]: in test [6] (canine 6, microarray), the “APC substrate RNA levels” value is “reduced APC substrate RNA levels”. The “markers of multiple drug resistance” value in test [6] (canine tumor tissue, westerns) was “reverse markers of multiple drug resistance”. Further, in test [6] (one canine (canine 6)), the remission entry is given as “induced remission”. Also, the “APC substrate Cyclin B protein levels” value in test [7] is recorded as “Reduced”. Also, the “metastatic potential / in vitro migration” value in [3] is “blocked”. In addition, in test [8], the “multiple drug resistant breast cancer in vitro” value was “prevents and reverses”.
On to “NGSSHNDARVRRLTLISRLC [C43-4-3, alanine at position 8 of C43-4]”, for which the “binds Apc10 in a yeast 2 hybrid assay” value in test [9] is listed as “binds Apc10”. Further, the “activity / toxicity of peptide in apc10Δ cells” value in test [10] is “remained toxic”. The “stress resistance (growth compared to empty vector)” value in [11] was “increased stress resistance further”.
